Structures are written as SMILES. Non-standard residues stand in square brackets, D forms with d. Residues, ends and D or L forms follow the SMILES beside them. pGlu = O=C1CC[C@@H](C(=O)O)N1

Assay [1] deals with rat pituitary tissue cultures. The assay can be described thus: Inhibition of LRH-induced release of LH in vitro in rat pituitary tissue cultures. The format is cell-based. The procedure: LH concentration is determined by double-antibody radioimmunoassay.
In assay [2] the test system is LRH-induced release of LH. As to the kind of experiment: Inhibition of LRH-induced release of LH in vivo in rats. More on the design: species or system Male Sprague-Dawley rats. As for the experimental part: Male Sprague-Dawley rats are divided into two groups of at least 5 animals in each group. One group receives the test compound. The other is the control group (no test compound). At zero time, the test group receives a 100-ng dose (subcutaneous) of D--Met^2 --D--Ala^6 --LRH in 0.2 ml. of physiological saline, while the control group receives a 0.2 ml. dose of physiological saline alone. At 20 minutes, blood samples are removed by cardiac puncture, and LH concentration is determined by double-antibody radioimmunoassay. At 45 minutes, the zero-time dose is repeated for each group of animals. At 50 minutes, the animals in each group are given a 200-ng dose (subcutaneous) of LRH in 0.2 ml. of physiological saline. A second blood sample is removed by cardiac puncture at 70 minutes and LH concentration is determined.

Regarding `CC(C)C[C@H](NC(=O)CNC(=O)[C@H](Cc1ccc(O)cc1)NC(=O)[C@H](CO)NC(=O)[C@H](Cc1c[nH]c2ccccc12)NC(=O)[C@H](Cc1c[nH]cn1)NC(=O)[C@@H]1CCC(=O)N1)C(=O)N[C@@H](CCCNC(=N)N)C(=O)N1CCC[C@H]1C(=O)NCC(N)=O` [LRH, L--pGlu--His--Trp--Ser--Tyr--Gly--Leu--Arg--Pro--Gly--NH2, reference compound], the LH concentration in assay [1] (LRH 5 ng/ml alone, no test compound) stood at 282 ± 11 ng/mL.

For the molecule `CSCC[C@@H](NC(=O)[C@@H]1CCC(=O)N1)C(=O)N[C@@H](Cc1c[nH]c2ccccc12)C(=O)N[C@@H](CO)C(=O)N[C@@H](Cc1ccc(O)cc1)C(=O)N[C@H](C)C(=O)N[C@@H](CC(C)C)C(=O)N[C@@H](CCCNC(=N)N)C(=O)N1CCC[C@H]1C(=O)NCC(=O)O` [D--Met^2 --D--Ala^6 --LRH, L-Pyroglutamyl-D-methionyl-L-tryptophyl-L-seryl-L-tyrosyl-D-alanyl-L-leucyl-L-arginyl-L-prolyl-glycine] ([pGlu][dM]WSY[dA]LRPG-OH), the “LH Plasma Conc.” value in assay [2] (time 20 minutes, before LRH administration, 100 ng s.c. test compound at zero time) was determined as 10 ± 4 ng/mL; in assay [2] (time 70 minutes, after LRH administration (200 ng s.c. at 50 min), 100 ng s.c. test compound at 0 and 45 min), 25 ± 5 ng/mL. In addition, the LH concentration in assay [1] (LRH 5 ng/ml + D-Met2-D-Ala6-LRH 10 ng/ml, double-antibody radioimmunoassay) was 308 ± 2 ng/mL; in assay [1] (LRH 5 ng/ml + D-Met2-D-Ala6-LRH 100 ng/ml, double-antibody radioimmunoassay) it was 143 ± 2 ng/mL; in assay [1] (LRH 5 ng/ml + D-Met2-D-Ala6-LRH 1000 ng/ml, double-antibody radioimmunoassay) it was 92 ± 2 ng/mL.

The values are drawn from patent US3941763A, “PGlu-D-Met-Trp-Ser-Tyr-D-Ala-Leu-Arg-Pro-Gly-NH2 and intermediates” (American Home Products Corporation, priority 1975, dated 1976).
